The values below come from publication PMC8385015, “Tumour-on-chip microfluidic platform for assessment of drug pharmacokinetics and treatment response” (Communications Biology, 2021).

Data set [1] deals with SW620 xenograft. The format is in vivo. To be noted: irinotecan 50 mg/kg IP day 1 weekly + vehicle PO, single animals. The procedure:
We tested different weekly in vivo dosing schedules, previously evaluated in SW620 spheroids on the chip (Fig. 5a) using matched exposure profiles to those previously observed in mouse plasma.
Male immunocompromised Hsd:Athymic Nude-Foxn1nu mice (Envigo) were used for xenograft tumour implantation. […] Animals were randomised into groups of 9–15 when tumours reached a volume of ~0.30 cm[3] and 4 weekly cycles of treatment commenced.
Tumours were measured twice weekly (length × width) by bilateral Vernier calliper measurements and tumour volume calculated using Mousetrap software. Tumour growth inhibition from start of treatment was assessed by comparison of the mean change in tumour volume for the control and treated groups using the Mousetrap application and represented as TGI.

Data set [2] in a line: in vivo. To be noted: mouse. The procedure: The samples were collected at 5, 15, 40 min, and 1, 2, 4, 6, 8 and 24 h.
Whole blood was mixed 1:5 with PBS and centrifuged at 1500×g for 3 min at 4 °C, and the plasma was extracted and frozen at –80 °C.
Using this PK model, a time course of free plasma concentrations of both drugs was simulated (Table 1).
Acidified acetonitrile ([…]) was added with the internal standard, followed by centrifugation at 3000 rpm for 10 min. Supernatant ([…]) was then removed to a clean plate and dried under nitrogen. […]
Supplementary Method 8. Pharmacokinetic models parameters used for simulations
AZD156 PK model and PK parameters used for simulations

[3] abbreviates: population PK model parameter, mean.

Values joined by “and” are separate entries in the source; they are usually repeats but may differ in a detail not shown here. Identical values can stand only once. Like-named read-outs stand apart in the source and are kept apart here.

Take `CCc1c2c(nc3ccc(OC(=O)N4CCC(N5CCCCC5)CC4)cc13)-c1cc3c(c(=O)n1C2)COC(=O)[C@]3(O)CC` [Irinotecan]: the Tumour size in data set [1] (day 7 (fig 5b 01)) was 0.6466 cm^3 and 0.9799 cm^3 and 0.6666 cm^3 and 1.05 cm^3 and 0.9864 cm^3 and 1.225 cm^3 and 0.8608 cm^3 and 0.8801 cm^3 and 0.7589 cm^3 and 0.364 cm^3 and 1.22 cm^3 and 1.71 cm^3 and 0.9487 cm^3 and 0.9159 cm^3 and 0.8306 cm^3. Further, the Tumour size in data set [1] (day 15 (fig 5b 02)) is 1.28 cm^3 and 1.619 cm^3 and 0.8212 cm^3 and 0.6967 cm^3 and 1.922 cm^3 and 1.901 cm^3 and 1.374 cm^3 and 0.7853 cm^3 and 2.931 cm^3. Besides, the Tumour size in data set [1] (day 35 (fig 5b 03)) is 3.4844 cm^3 and 2.894 cm^3 and 2.205 cm^3 and 2.6873 cm^3 and 2.88 cm^3 and 1.604 cm^3 and 1.682 cm^3. Further, in data set [2] (female, CB-17 SCID, in vivo), the Km was determined as 6.12 nM and the “Q/(1-F4)” value came to 0.0574 L/h. In addition, in data set [2] (setting [3]), the “FM*” value worked out at 0.286, the “V2/(1-F4)” value was 0.0161 L, the “V3/(1-F4)” value was found to be 5.26 L and the maximum rate (Vmax) stood at 0.0589 µM/h. In data set [2] (setting [3]), the ka was found to be 0.454 h⁻¹.
